Laboratory results published in US20050244486A1, “Topical methadone compositions and methods for using the same” (priority 2004, published 2005).
Several values for one entry are separate records, joined by “and”; a condition that tells them apart may be missing. Equal entries are not always repeated. Where two headings read alike, the source gives them in different places.

Key:
[1] = Study 1: concentrations of methadone in rat plasma, topical administration versus intravenous injection; format: in vivo; conditions: rat, in vivo, read-out: Concentrations of Methadone in Rat Plasma Samples
Procedure: (§1) The test article was administered intravenously (IV) through the tail vein to animals in Group A. The injection was performed slowly. A gauze pad (1×1 cm) Saturated with 0.2 mL of the appropriate test article was applied to the clipped site on the back of the animals in Groups 2 and 3. The gauze pad was secured by occlusive tape. The animal was wrapped in gauze, which was held in place with Zonas porous tape.
(§2) Blood Collection: Blood (0.5 mL) was collected into sodium heparin tubes at the appropriate time points. The samples were centrifuged at approximately 2800 rpm at 2-8 degrees Celsius for approximately 15 minutes. Plasma was collected.

[2] = Study 2: concentrations of methadone in rat plasma, topical administration versus intravenous injection; format: in vivo
Procedure: as §1, §2

[3] = Pharmacokinetic study B: methadone patch, human plasma; format: in vivo; conditions: topical, Study B: 5 × 5 cm SIS patch (Methadone 10 weight %), 25 mg Methadone free base, applied 12 hours, left leg inner side above knee, 55 kg person, read-out: Concentrations of Methadone in Human Plasma Samples
[4] = Pharmacokinetic study A: topical Methadone-DEET solution, human plasma; conditions: 10% solution in DEET, one-day application to the skin
[5] = iv, 0.125 mg/animal, Study 1 Group A: I.V. tail vein, 0.25 mL Test Article 1 (0.5 mg/mL Methadone-Saline Solution), individual rats A1-A3

Compound: CCC(=O)C(CC(C)N(C)C)(c1ccccc1)c1ccccc1 (stereo not drawn) [Methadone, 6-dimethylamino-4,4-diphenyl-3-hepatone]
- concentration at 120 min ([1]; 0.2 mL of 10% methadone solution, Study 1 Group C: topical dorsal flank, 1 × 1 cm gauze pad with 0.2 mL Test Article 3 (Methadone-DEET Solution 10%), 120 min, individual rats C1-C3): 6.85 ng/mL
- concentration at 10 min ([1]; 0.2 mL of 23.9% methadone solution, Study 1 Group B: topical dorsal flank, 1 × 1 cm gauze pad with 0.2 mL Test Article 2 (Methadone-Diisopropyl Adipate Solution 23.9%), individual rats B1-B3): 3.02 ng/mL
- concentration at 20 min ([1]; 0.2 mL of 23.9% methadone-diisopropyl adipate solution, Study 1 Group B: topical dorsal flank, 1 × 1 cm gauze pad with 0.2 mL Test Article 2 (Methadone-Diisopropyl Adipate Solution 23.9%), 20 min, individual rats B1-B3): 4.14 ng/mL
- concentration at 45 min ([1]; 0.2 mL of 23.9% methadone-diisopropyl adipate solution, Study 1 Group B: topical dorsal flank, 1 × 1 cm gauze pad with 0.2 mL Test Article 2 (Methadone-Diisopropyl Adipate Solution 23.9%), 45 min, individual rats B1-B3): 11.5 ng/mL
- concentration at 60 min ([1]; 0.2 mL of 23.9% methadone-diisopropyl adipate solution, Study 1 Group B: topical dorsal flank, 1 × 1 cm gauze pad with 0.2 mL Test Article 2 (Methadone-Diisopropyl Adipate Solution 23.9%), individual rats B1-B3): 11.3 ng/mL
- concentration at 2 min ([1]; iv, 0.125 mg/animal, Study 1 Group A: I.V. tail vein, 0.25 mL Test Article 1 (0.5 mg/mL Methadone-Saline Solution), 2 min, individual rats A1-A3): 73.5 ng/mL
- concentration at 5 min ([1]; iv, 0.125 mg/animal, Study 1 Group A: I.V. tail vein, 0.25 mL Test Article 1 (0.5 mg/mL Methadone-Saline Solution), 5 min, individual rats A1-A3): 68.7 ng/mL
- concentration at 10 min [1, 5]: 61.8 ng/mL
- concentration at 30 min ([1]; iv, 0.125 mg/animal, Study 1 Group A: I.V. tail vein, 0.25 mL Test Article 1 (0.5 mg/mL Methadone-Saline Solution), 30 min, individual rats A1-A3): 35.3 ng/mL
- concentration at 60 min [1, 5]: 22.8 ng/mL
- Irritation of rat skin by topical application ([2]; Study 2, topical methadone solutions on rat skin): lack of irritation
- Concentrations of Methadone in Rat Plasma Samples ([2]; Study 2 Group A: I.V. tail vein, 0.25 mL Test Article 1 (0.5 mg/mL Methadone-Saline Solution), 2 min, individual rats A1-A3): 72.0 ng/mL and 63.1 ng/mL
- Concentrations of Methadone in Rat Plasma Samples ([2]; Study 2 Group A: I.V. tail vein, 0.25 mL Test Article 1 (0.5 mg/mL Methadone-Saline Solution), 20 min, individual rats A1-A3): 49.2 ng/mL and 59.5 ng/mL
- Concentrations of Methadone in Rat Plasma Samples ([2]; Study 2 Group A: I.V. tail vein, 0.25 mL Test Article 1 (0.5 mg/mL Methadone-Saline Solution), 40 min, individual rats A1-A3): 33.0 ng/mL and 35.2 ng/mL
- Concentrations of Methadone in Rat Plasma Samples ([2]; Study 2 Group A: I.V. tail vein, 0.25 mL Test Article 1 (0.5 mg/mL Methadone-Saline Solution), 60 min, individual rats A1-A3): 19.7 ng/mL and 24.0 ng/mL
- Concentrations of Methadone in Rat Plasma Samples ([2]; Study 2 Group A: I.V. tail vein, 0.25 mL Test Article 1 (0.5 mg/mL Methadone-Saline Solution), 120 min, individual rats A1-A3): 19.5 ng/mL and 13.1 ng/mL and 9.26 ng/mL
- Concentrations of Methadone in Rat Plasma Samples ([2]; Study 2 Group A: I.V. tail vein, 0.25 mL Test Article 1 (0.5 mg/mL Methadone-Saline Solution), 480 min, individual rats A1-A3): 1.83 ng/mL and 1.96 ng/mL
- Concentrations of Methadone in Rat Plasma Samples ([2]; Study 2 Group A: I.V. tail vein, 0.25 mL Test Article 1 (0.5 mg/mL Methadone-Saline Solution), 1440 min, individual rats A1-A3): 2.31 ng/mL and 0.923 ng/mL
- Concentrations of Methadone in Rat Plasma Samples ([2]; Study 2 Group A: I.V. tail vein, 0.25 mL Test Article 1 (0.5 mg/mL Methadone-Saline Solution), 2160 min, individual rats A1-A3): 0.905 ng/mL and 0.944 ng/mL
- Concentrations of Methadone in Rat Plasma Samples ([2]; Study 2 Group B: topical dorsal flank, 1 × 1 cm gauze pad with 0.2 mL Test Article 2 (Methadone-Diisopropyl Adipate Solution 23.9%), 15 min, individual rats B1-B3): 1.49 ng/mL and 1.70 ng/mL
- Concentrations of Methadone in Rat Plasma Samples ([2]; Study 2 Group B: topical dorsal flank, 1 × 1 cm gauze pad with 0.2 mL Test Article 2 (Methadone-Diisopropyl Adipate Solution 23.9%), 45 min, individual rats B1-B3): 5.66 ng/mL and 3.96 ng/mL and 17.0 ng/mL
- Concentrations of Methadone in Rat Plasma Samples ([2]; Study 2 Group B: topical dorsal flank, 1 × 1 cm gauze pad with 0.2 mL Test Article 2 (Methadone-Diisopropyl Adipate Solution 23.9%), 90 min, individual rats B1-B3): 14.3 ng/mL and 27.1 ng/mL
- Concentrations of Methadone in Rat Plasma Samples ([2]; Study 2 Group B: topical dorsal flank, 1 × 1 cm gauze pad with 0.2 mL Test Article 2 (Methadone-Diisopropyl Adipate Solution 23.9%), 120 min, individual rats B1-B3): 41.4 ng/mL and 19.1 ng/mL and 44.9 ng/mL
- Concentrations of Methadone in Rat Plasma Samples ([2]; Study 2 Group B: topical dorsal flank, 1 × 1 cm gauze pad with 0.2 mL Test Article 2 (Methadone-Diisopropyl Adipate Solution 23.9%), 480 min, individual rats B1-B3): 159 ng/mL and 46.7 ng/mL and 300 ng/mL
- Concentrations of Methadone in Rat Plasma Samples ([2]; Study 2 Group B: topical dorsal flank, 1 × 1 cm gauze pad with 0.2 mL Test Article 2 (Methadone-Diisopropyl Adipate Solution 23.9%), 1440 min, individual rats B1-B3): 117 ng/mL and 168 ng/mL
- Concentrations of Methadone in Rat Plasma Samples ([2]; Study 2 Group B: topical dorsal flank, 1 × 1 cm gauze pad with 0.2 mL Test Article 2 (Methadone-Diisopropyl Adipate Solution 23.9%), 2160 min, individual rats B1-B3): 82.7 ng/mL and 126 ng/mL and 59.4 ng/mL
- Concentrations of Methadone in Rat Plasma Samples ([2]; Study 2 Group B: topical dorsal flank, 1 × 1 cm gauze pad with 0.2 mL Test Article 2 (Methadone-Diisopropyl Adipate Solution 23.9%), 2880 min, individual rats B1-B3): 49.4 ng/mL and 173 ng/mL and 34.0 ng/mL
- Concentrations of Methadone in Rat Plasma Samples ([2]; Study 2 Group C: topical dorsal flank, 1 × 1 cm gauze pad with 0.2 mL Test Article 3 (Methadone-DEET Solution 10%), 15 min, individual rats C1-C3): 0.84 ng/mL and 1.72 ng/mL and 1.04 ng/mL
- Concentrations of Methadone in Rat Plasma Samples ([2]; Study 2 Group C: topical dorsal flank, 1 × 1 cm gauze pad with 0.2 mL Test Article 3 (Methadone-DEET Solution 10%), 45 min, individual rats C1-C3): 2.42 ng/mL and 1.71 ng/mL
- Concentrations of Methadone in Rat Plasma Samples ([2]; Study 2 Group C: topical dorsal flank, 1 × 1 cm gauze pad with 0.2 mL Test Article 3 (Methadone-DEET Solution 10%), 90 min, individual rats C1-C3): 4.7 ng/mL and 2.89 ng/mL
- Concentrations of Methadone in Rat Plasma Samples ([2]; Study 2 Group C: topical dorsal flank, 1 × 1 cm gauze pad with 0.2 mL Test Article 3 (Methadone-DEET Solution 10%), 120 min, individual rats C1-C3): 3.84 ng/mL and 7.73 ng/mL and 3.39 ng/mL
- Concentrations of Methadone in Rat Plasma Samples ([2]; Study 2 Group C: topical dorsal flank, 1 × 1 cm gauze pad with 0.2 mL Test Article 3 (Methadone-DEET Solution 10%), 480 min, individual rats C1-C3): 18.0 ng/mL and 29.6 ng/mL and 14.3 ng/mL
- Concentrations of Methadone in Rat Plasma Samples ([2]; Study 2 Group C: topical dorsal flank, 1 × 1 cm gauze pad with 0.2 mL Test Article 3 (Methadone-DEET Solution 10%), 1440 min, individual rats C1-C3): 20.0 ng/mL and 20.6 ng/mL
- Concentrations of Methadone in Rat Plasma Samples ([2]; Study 2 Group C: topical dorsal flank, 1 × 1 cm gauze pad with 0.2 mL Test Article 3 (Methadone-DEET Solution 10%), 2160 min, individual rats C1-C3): 17.3 ng/mL and 35.1 ng/mL and 19.0 ng/mL
- Concentrations of Methadone in Rat Plasma Samples ([2]; Study 2 Group C: topical dorsal flank, 1 × 1 cm gauze pad with 0.2 mL Test Article 3 (Methadone-DEET Solution 10%), 2880 min, individual rats C1-C3): 11.1 ng/mL and 23.7 ng/mL and 12.6 ng/mL
- concentration at 45 min ([2]; rat, in vivo, 0.2 mL of 10% methadone solution, Study 2 Group C: topical dorsal flank, 1 × 1 cm gauze pad with 0.2 mL Test Article 3 (Methadone-DEET Solution 10%), 45 min, individual rats C1-C3, read-out: Concentrations of Methadone in Rat Plasma Samples): 2.08 ng/mL
- concentration at 90 min ([2]; rat, in vivo, 0.2 mL of 10% methadone solution, Study 2 Group C: topical dorsal flank, 1 × 1 cm gauze pad with 0.2 mL Test Article 3 (Methadone-DEET Solution 10%), 90 min, individual rats C1-C3, read-out: Concentrations of Methadone in Rat Plasma Samples): 3.17 ng/mL
- concentration at 1440 min ([2]; rat, in vivo, 0.2 mL of 10% methadone solution, Study 2 Group C: topical dorsal flank, 1 × 1 cm gauze pad with 0.2 mL Test Article 3 (Methadone-DEET Solution 10%), 1440 min, individual rats C1-C3, read-out: Concentrations of Methadone in Rat Plasma Samples): 27.8 ng/mL
- concentration at 15 min ([2]; rat, in vivo, 0.2 mL of 23.9% methadone solution, Study 2 Group B: topical dorsal flank, 1 × 1 cm gauze pad with 0.2 mL Test Article 2 (Methadone-Diisopropyl Adipate Solution 23.9%), 15 min, individual rats B1-B3, read-out: Concentrations of Methadone in Rat Plasma Samples): 2.75 ng/mL
- concentration at 90 min ([2]; rat, in vivo, 0.2 mL of 23.9% methadone solution, Study 2 Group B: topical dorsal flank, 1 × 1 cm gauze pad with 0.2 mL Test Article 2 (Methadone-Diisopropyl Adipate Solution 23.9%), 90 min, individual rats B1-B3, read-out: Concentrations of Methadone in Rat Plasma Samples): 24.8 ng/mL
- concentration at 1440 min ([2]; rat, in vivo, 0.2 mL of 23.9% methadone solution, Study 2 Group B: topical dorsal flank, 1 × 1 cm gauze pad with 0.2 mL Test Article 2 (Methadone-Diisopropyl Adipate Solution 23.9%), 1440 min, individual rats B1-B3, read-out: Concentrations of Methadone in Rat Plasma Samples): 116 ng/mL
- concentration at 2 min ([2]; rat, in vivo, iv, 0.125 mg, Study 2 Group A: I.V. tail vein, 0.25 mL Test Article 1 (0.5 mg/mL Methadone-Saline Solution), 2 min, individual rats A1-A3, read-out: Concentrations of Methadone in Rat Plasma Samples): 36.3 ng/mL
- concentration at 20 min ([2]; rat, in vivo, iv, 0.125 mg, Study 2 Group A: I.V. tail vein, 0.25 mL Test Article 1 (0.5 mg/mL Methadone-Saline Solution), 20 min, individual rats A1-A3, read-out: Concentrations of Methadone in Rat Plasma Samples): 55.9 ng/mL
- concentration at 40 min ([2]; rat, in vivo, iv, 0.125 mg, Study 2 Group A: I.V. tail vein, 0.25 mL Test Article 1 (0.5 mg/mL Methadone-Saline Solution), 40 min, individual rats A1-A3, read-out: Concentrations of Methadone in Rat Plasma Samples): 35.4 ng/mL
- concentration at 60 min ([2]; rat, in vivo, iv, 0.125 mg, Study 2 Group A: I.V. tail vein, 0.25 mL Test Article 1 (0.5 mg/mL Methadone-Saline Solution), 60 min, individual rats A1-A3, read-out: Concentrations of Methadone in Rat Plasma Samples): 28.1 ng/mL
- concentration at 480 min ([2]; rat, in vivo, iv, 0.125 mg, Study 2 Group A: I.V. tail vein, 0.25 mL Test Article 1 (0.5 mg/mL Methadone-Saline Solution), 480 min, individual rats A1-A3, read-out: Concentrations of Methadone in Rat Plasma Samples): 1.54 ng/mL
- concentration at 2160 min ([2]; rat, in vivo, iv, 0.125 mg, Study 2 Group A: I.V. tail vein, 0.25 mL Test Article 1 (0.5 mg/mL Methadone-Saline Solution), 2160 min, individual rats A1-A3, read-out: Concentrations of Methadone in Rat Plasma Samples): 0.796 ng/mL
- concentration at 12 h ([3]; 12 hr): 5.36 ng/mL
- concentration at 18 h ([3]; 18 hr): 4.95 ng/mL
- concentration at 139.5 h ([3]; 139.5 hr): 2.24 ng/mL
- Irritation of human skin by topical methadone composition [4]: lack of irritation
